Measured values taken from patent US8952024B2, “Herbicidal pyrimidone derivatives” (E I du Pont de Nemours and Company, priority 2009, dated 2015).

Columns and labels:
Test in all cases: Test B pre-/postemergence plant response
Type in all cases: in vivo
[1] = tested on: Italian ryegrass (Lolium multiflorum)
How it was run: (§1)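 Compound in solvent + surfactant applied pre-em (loam/sand) or post-em (plants 2–18 cm, peat medium); greenhouse hold 13–15 days; visual 0–100 control score.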

[2] = tested on: Surinam grass (Brachiaria decumbens)
How it was run: as §1

[3] = tested on: bermudagrass (Cynodon dactylon)
How it was run: as §1

[4] = tested on: blackgrass (Alopecurus myosuroides)
How it was run: as §1

[5] = tested on: corn (Zea mays)
How it was run: as §1

[6] = tested on: downy bromegrass (Bromus tectorum)
How it was run: as §1

[7] = tested on: giant foxtail (Setaria faberii)
How it was run: as §1

[8] = tested on: green foxtail (Setaria viridis)
How it was run: as §1

[9] = tested on: lambsquarters (Chenopodium album)
How it was run: as §1

[10] = tested on: large crabgrass (Digitaria sanguinalis)
How it was run: as §1

[11] = tested on: morningglory (Ipomoea coccinea)
How it was run: as §1

[12] = tested on: woolly cupgrass (Eriochloa villosa)
How it was run: as §1

[13] = tested on: yellow nutsedge (Cyperus esculentus)
How it was run: as §1

[14] = 31 g ai/ha, postemergence, scale 0 to 100, 0 is no effect, 100 is complete control
[15] = 62 g ai/ha, postemergence, 0 is no effect, 100 is complete control, 13 to 15 days
[16] = Postemergence, 125 g ai/ha, visual rating after 13 to 15 days, scale 0 (no effect) to 100 (complete control)
[17] = Postemergence, 250 g ai/ha, scale 0 to 100 (0 no effect, 100 complete control)
[18] = Preemergence, 31 g ai/ha, scale 0 to 100 (0 no effect, 100 complete control)
[19] = Preemergence, 62 g ai/ha, scale 0 to 100 (0 no effect, 100 complete control)
[20] = Preemergence, 125 g ai/ha, scale 0 to 100, 0 no effect, 100 complete control
[21] = 250 g ai/ha, Preemergence, 0 to 100 scale

CCCCc1ncc(C(=O)C2=C(O)CCCC2=O)c(=O)n1-c1ccc(C)cc1 [Compound 67]
Plant response rating, Ryegrass, Italian [1, 14]: 0
Ryegrass, Italian plant response rating (0 to 100 scale) [1, 15]: 5
Plant response rating, Ryegrass, Italian [1, 16]: 5
Plant response rating, Ryegrass, Italian [1, 17]: 5
Plant response rating, Ryegrass, Italian [1, 18]: 0
Plant response rating, Ryegrass, Italian [1, 19]: 0
Plant response rating, Ryegrass, Italian [1, 20]: 0
Plant response rating, Surinam Grass [2, 14]: 10
Surinam Grass plant response rating (0 to 100 scale) [2, 15]: 20
Plant response rating, Surinam Grass [2, 16]: 20
Plant response rating, Surinam Grass [2, 17]: 25
Plant response rating, Surinam Grass [2, 18]: 0
Plant response rating, Surinam Grass [2, 19]: 10
Plant response rating, Surinam Grass [2, 20]: 15
Plant response rating, Bermudagrass [3, 14]: 35
Bermudagrass plant response rating (0 to 100 scale) [3, 15]: 70
Plant response rating, Bermudagrass [3, 21]: 100
Plant response rating, Bermudagrass [3, 16]: 70
Plant response rating, Bermudagrass [3, 17]: 85
Plant response rating, Bermudagrass [3, 18]: 45
Plant response rating, Bermudagrass [3, 19]: 90
Plant response rating, Bermudagrass [3, 20]: 95
Plant response rating, Blackgrass [4, 14]: 0
Blackgrass plant response rating (0 to 100 scale) [4, 15]: 0
Plant response rating, Blackgrass [4, 21]: 5
Plant response rating, Blackgrass [4, 16]: 5
Plant response rating, Blackgrass [4, 17]: 10
Plant response rating, Blackgrass [4, 18]: 0
Plant response rating, Blackgrass [4, 19]: 0
Plant response rating, Blackgrass [4, 20]: 0
Plant response rating, Corn [5, 14]: 5
Corn plant response rating (0 to 100 scale) [5, 15]: 10
Plant response rating, Corn [5, 21]: 0
Plant response rating, Corn [5, 16]: 65
Plant response rating, Corn [5, 17]: 75
Plant response rating, Corn [5, 18]: 0
Plant response rating, Corn [5, 19]: 0
Plant response rating, Corn [5, 20]: 0
Plant response rating, Bromegrass, Downy [6, 14]: 0
Bromegrass, Downy plant response rating (0 to 100 scale) [6, 15]: 0
Plant response rating, Bromegrass, Downy [6, 21]: 0
Plant response rating, Bromegrass, Downy [6, 16]: 0
Plant response rating, Bromegrass, Downy [6, 17]: 5
Plant response rating, Bromegrass, Downy [6, 18]: 0
Plant response rating, Bromegrass, Downy [6, 19]: 0
Plant response rating, Bromegrass, Downy [6, 20]: 0
Plant response rating, Foxtail, Giant [7, 14]: 75
Foxtail, Giant plant response rating (0 to 100 scale) [7, 15]: 80
Plant response rating, Foxtail, Giant [7, 21]: 65
Plant response rating, Foxtail, Giant [7, 16]: 85
Plant response rating, Foxtail, Giant [7, 17]: 90
Plant response rating, Foxtail, Giant [7, 18]: 0
Plant response rating, Foxtail, Giant [7, 19]: 0
Plant response rating, Foxtail, Giant [7, 20]: 45
Plant response rating, Foxtail, Green [8, 14]: 10
Foxtail, Green plant response rating (0 to 100 scale) [8, 15]: 80
Plant response rating, Foxtail, Green [8, 21]: 40
Plant response rating, Foxtail, Green [8, 16]: 80
Plant response rating, Foxtail, Green [8, 17]: 95
Plant response rating, Foxtail, Green [8, 18]: 0
Plant response rating, Foxtail, Green [8, 19]: 30
Plant response rating, Lambsquarters [9, 14]: 80
Lambsquarters plant response rating (0 to 100 scale) [9, 15]: 95
Plant response rating, Lambsquarters [9, 21]: 98
Plant response rating, Lambsquarters [9, 16]: 98
Plant response rating, Lambsquarters [9, 17]: 100
Plant response rating, Lambsquarters [9, 18]: 98
Plant response rating, Lambsquarters [9, 19]: 98
Plant response rating, Lambsquarters [9, 20]: 98
Plant response rating, Crabgrass, Large [10, 14]: 75
Crabgrass, Large plant response rating (0 to 100 scale) [10, 15]: 80
Plant response rating, Crabgrass, Large [10, 21]: 100
Plant response rating, Crabgrass, Large [10, 16]: 90
Plant response rating, Crabgrass, Large [10, 17]: 95
Plant response rating, Crabgrass, Large [10, 18]: 40
Plant response rating, Crabgrass, Large [10, 19]: 65
Plant response rating, Crabgrass, Large [10, 20]: 98
Plant response rating, Morningglory [11, 14]: 80
Morningglory plant response rating (0 to 100 scale) [11, 15]: 90
Plant response rating, Morningglory [11, 16]: 95
Plant response rating, Morningglory [11, 17]: 100
Plant response rating, Morningglory [11, 18]: 0
Plant response rating, Morningglory [11, 19]: 15
Plant response rating, Morningglory [11, 20]: 15
Plant response rating, Cupgrass, Woolly [12, 14]: 60
Cupgrass, Woolly plant response rating (0 to 100 scale) [12, 15]: 70
Plant response rating, Cupgrass, Woolly [12, 21]: 10
Plant response rating, Cupgrass, Woolly [12, 16]: 70
Plant response rating, Cupgrass, Woolly [12, 17]: 75
Plant response rating, Cupgrass, Woolly [12, 18]: 0
Plant response rating, Cupgrass, Woolly [12, 19]: 0
Plant response rating, Cupgrass, Woolly [12, 20]: 0
Plant response rating, Nutsedge, Yellow [13, 14]: 60
Nutsedge, Yellow plant response rating (0 to 100 scale) [13, 15]: 65
Plant response rating, Nutsedge, Yellow [13, 16]: 65
Plant response rating, Nutsedge, Yellow [13, 17]: 70
Plant response rating, Nutsedge, Yellow [13, 18]: 0
Plant response rating, Nutsedge, Yellow [13, 19]: 65
Plant response rating, Nutsedge, Yellow [13, 20]: 65
